In assay [1] the target is T1, human PD-1/PD-L1 binding (Homo sapiens, UniProt Q9NZQ7).
T1 construct: PD-L1-His protein (19 to 238 amino acids) (Abcam #ab167713); purchased Abcam (PD-L1-His); R&D (PD-1-Fc) ab167713; 1086-PD
The experiment in a line: Inhibition of human PD-1/PD-L1 binding (TR-FRET/HTRF). The settings on record: TR-FRET, PD-L1-His and PD-1-Fc; read-out: PD-1/PD-L1 binding IC50. The method in brief:
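PD-L1-His (aa 19–238, diluted to 10 nM) and PD-1-Fc (aa 25–167, diluted to 20 nM) incubated with compounds (10 μM or 1 μM top, 3-fold, 11 doses) 60 min at room temperature, then anti-6HIS Eu cryptate/anti-human IgG-XL665 added for 3 h RT or overnight 4 °C. HTRF 665/620 nm ratio gave inhibition and IC50.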

For assay [2], the system named is CHO-PDL1/Jurkat-PD1 cell pathway. The experiment in a line: Inhibition of CHO-PDL1/Jurkat-PD1 cell pathway (NFAT luciferase reporter). The assay is classed as cell-based. To be noted: for EC50: 6 hours incubation, luciferase signal; for maximal fold induction: relative to the signal value of the non-dosed group, read-out: Maximum induction fold. The method, then: Test Embodiment 3. Inhibitory Effect of the Compounds of the Present Disclosure on CHO-PDL1/Jurkat-PD1 Cell Pathway
Experimental purpose: The purpose of this test embodiment was to test the inhibitory effect of compounds on the CHO-PDL1/Jurkat-PD1 cell pathway.
Experimental method: Two stably transfected cell lines were included in this experiment, CHO-K1 cells stably transfected with PD-L1 and Jurkat cells stably transfected with PD-1 and NFAT luciferase reporter genes. Compounds were incubated with the two cell lines. Then, due to the inhibitory effect on the PD-1/PD-L1 pathway, the activation degree of Jurkat cells changed, so that the level of the reporter gene NFAT in the downstream of Jurkat cells changed, and the level of NFAT was characterized by detecting the signal value of luciferase, so that the inhibitory effect of the test compound on CHO-PDL1/Jurkat-PD1 pathway was characterized.
CHO-PDL1 cells (Promega, #J1252) were cultured to a suitable cell density. After digestion, the cells were resuspended by complete medium to become a suitable density of cell suspension. The cell suspension was plated 100 μL per well on a 96-well plate (Corning, #3610), and placed in a 37° C., 5% CO2 incubator and incubated overnight, and assay medium (RPMI 1640+2% FBS, RPMI 1640 Cat. No.: Gibco, #22400089, FBS Cat. No.: Gibco, #10091148) was used to prepare compound solutions of different concentrations. NFAT-luc2/PD1 Jurkat cells (Promega, #J1252) were collected and resuspended to the appropriate cell density using assay medium. The supernatant of the CHO-PDL1 cell culture plate was aspirated, and 40 μL of the prepared compound solution and 40 μL of resuspended NFAT-luc2/PD1 Jurkat cells were added, and incubated in a 5% CO2 incubator at 37° C. for 6 hours, and the cell plate was taken out, then 40 μL of One-Glo reagent (Promega, #E6120) was added to each well, shaked and mixed well, incubated in the dark at room temperature for 10 minutes, then put into a microplate reader and the luminescence program was used to read the luminescence value of the cell plate.
The EC50 value was fitted according to the compound concentration and the luminescence signal value, and the maximum induction fold of each compound relative to the signal value of the non-dosed group was calculated, as shown in Table 3.

The test system of assay [3] is NFAT-luc2/PD1 Jurkat cells. The assay can be described thus: In vitro cytotoxicity on NFAT-luc2/PD1 Jurkat cells (CellTiter-Glo). In kind it is cell-based. To be noted: 72 hours; for IC50: Homo sapiens, Jurkat. As to the method:
(§1) Test Embodiment 5. In Vitro Cytotoxicity of the Compounds of the Present Disclosure on NFAT-Luc2/PD1 Jurkat Cells and MC38-hPDL1 Cells
(§2) Experimental purpose: To test the in vitro cytotoxicity of compounds on NFAT-luc2/PD1 Jurkat cells and MC38-hPDL1 cells.
(§3) When the cells were cultured to an appropriate degree of confluency, the cells were collected, and the cells was adjusted in an appropriate cell concentration by complete medium, then the cell suspension was plated in a 96-well plate, 90 μL per well, and put in a 37° C., 5% CO2 incubator overnight; compound solutions of different concentrations were prepared by DMSO and medium, and a vehicle control was set; compound solutions were added to a 96-well plate, 10 μL per well, and put in a 37° C., 5% CO2 incubator and cultured for 72 hours. After that, CellTiter-Glo solution was added, the mixture was shaken and mixed evenly, incubated in the dark for 10 minutes, and a BioTek Synergy H1 microplate reader was used for reading.
(§4) Luminescence signal value was used to calculate the inhibition rate, and the concentration and inhibition rate were fitted by nonlinear regression curve using Graphpad Prism software to obtain IC50 values, as shown in the following table: […]

The test system of assay [4] is MC38-hPDL1 cells. The assay can be described thus: In vitro cytotoxicity on MC38-hPDL1 cells (CellTiter-Glo). The assay is classed as cell-based, mouse. To be noted: for MC38-hPDL1 inhibition rate (%): 72 hours; for IC50: Mus musculus, MC38-hPD-L1, 72 hours. As to the method: as §1, §2, §3, §4
Assay [5] has as its target T2, PD-L1 protein on the surface of MC38-hPDL1 tumor cells (Homo sapiens, UniProt Q9NZQ7).
T2 construct: expressed in transfected cells; host or cells: MC38-hPDL1 (mouse colon cancer cells)
The experiment in a line: Induction of endocytosis of PD-L1 on the surface of tumor cells (flow cytometry). In kind it is cell-based. To be noted: 16 hours incubation; for Emax: MC38-hPDL1 cells, read-out: MC38 maximum endocytosis rate; for IC50: inducing endocytosis of PD-L1, MC38-hPDL1 cells, read-out: MC38 IC50. The method in brief: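 IC50 comes from nonlinear fits of endocytosis rate, calculated from the loss of surface PE-anti-CD274 flow signal relative to vehicle. Cells were MC38 mouse colon cancer cells engineered to express high human PD-L1. Compound exposure lasted 16 h at 37 °C, 5% CO2.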

The target of assay [6] is T3, human PD-L1 protein (Homo sapiens, UniProt Q9NZQ7).
T3 construct: purchased Acro Biosystems PD1-H5229
T3 sequence (Q9NZQ7 19-238 limits assumed): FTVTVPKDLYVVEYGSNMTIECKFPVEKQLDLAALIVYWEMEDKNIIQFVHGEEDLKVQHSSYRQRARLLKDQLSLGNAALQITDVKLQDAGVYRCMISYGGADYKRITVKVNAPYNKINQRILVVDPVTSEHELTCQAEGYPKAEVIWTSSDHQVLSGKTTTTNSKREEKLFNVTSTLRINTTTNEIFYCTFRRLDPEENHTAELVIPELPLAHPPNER
The experiment in a line: Thermal shift: melting temperature of PD-L1 protein. The assay is classed as binding. The settings on record: compound 10 μM, PD-L1 protein 2 μM, Tm minus DMSO vehicle control; read-out: ΔTm (° C.). The method in brief: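 Human PD-L1 at 2 μM final was tested in […], 150 mM NaCl with SYPRO Orange, heated 25→95 °C at 0.03 °C/s in a PCR melt-curve run. Tm was taken per treatment; ΔTm is the shift relative to DMSO vehicle.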

T2 sequence (Q9NZQ7 19-290): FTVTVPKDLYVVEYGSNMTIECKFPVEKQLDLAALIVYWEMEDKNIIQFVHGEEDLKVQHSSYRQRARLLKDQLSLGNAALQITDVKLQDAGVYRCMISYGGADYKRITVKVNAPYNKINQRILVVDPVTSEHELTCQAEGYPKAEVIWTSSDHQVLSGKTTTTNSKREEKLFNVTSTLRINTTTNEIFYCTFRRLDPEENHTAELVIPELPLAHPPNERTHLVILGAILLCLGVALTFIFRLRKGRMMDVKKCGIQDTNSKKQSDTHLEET
T1 sequence (Q9NZQ7 19-238): as the sequence (Q9NZQ7 19-238 limits assumed) above

Turning to `COc1cc(-c2cccc(-c3cccc(NC(=O)c4nc5c(n4C)CCN(C)C5)c3Cl)c2Cl)ccc1CNCC(=O)O` [Embodiment 159, ((2′,2″-Dichloro-3″-(1,5-dimethyl-4,5,6,7-tetrahydro-1H-imidazo[4,5-c]pyridine-2-carboxamido)-3-methoxy-[1,1′:3′,1″-terphenyl]-4-yl)methyl)glycine], the IC50 in assay [1] was 2.2 nM. Moreover, in assay [2], the 50% effective concentration (EC50) worked out at 45 nM and the maximal fold induction amounted to 3.2. Moreover, in assay [3], the “Jurkat-PD1 inhibition rate (%)” value is 24% and the IC50 is above 10000 nM. Also, in assay [4], the “MC38-hPDL1 inhibition rate (%)” value was 5% and the IC50 was above 10000 nM.

For the compound `COc1nc(-c2cccc(-c3cccc(NC(=O)c4nc5c(n4C)CCN(C)C5)c3Cl)c2C)ccc1CNC1COC1` [Embodiment 112, N-(2-Chloro-3′-(6-methoxy-5-((oxetan-3-ylamino)methyl)pyridin-2-yl)-2′-methyl-[1,1′-biphenyl]-3-yl)-1,5-dimethyl-4,5,6,7-tetrahydro-1H-imidazo[4,5-c]pyridine-2-carboxamide], the IC50 in assay [1] is 9.4 nM; in assay [5] it was 11 nM; in assay [3] it was 8630 nM; in assay [4], above 10000 nM. Besides, in assay [5], the Emax worked out at 87%. Also, the ΔTm at 10 µM in assay [6] worked out at 12 °C. Besides, the “Jurkat-PD1 inhibition rate (%)” value in assay [3] is recorded as 57.0%^. The “MC38-hPDL1 inhibition rate (%)” value in assay [4] came out at 13.0%^.

For `COc1nc(-c2cccc(-c3cccc(NC(=O)c4nc5c(n4C)CCN(C)C5)c3Cl)c2Cl)ccc1CN1CC(CO)C1` [Embodiment 215, N-(2,2′-Dichloro-3′-(5-((3-(hydroxymethyl)azetidin-1-yl)methyl)-6-methoxypyridin-2-yl)-[1,1′-biphenyl]-3-yl)-1,5-dimethyl-4,5,6,7-tetrahydro-1H-imidazo[4,5-c]pyridine-2-carboxamide], the IC50 in assay [1] is 5 nM; in assay [3], 4320 nM; in assay [4], 9340 nM. Further, the Emax in assay [5] stood at 96%. Besides, the ΔTm at 10 µM in assay [6] is 17.3 °C. Also, the “Jurkat-PD1 inhibition rate (%)” value in assay [3] was 85%. Further, in assay [4], the “MC38-hPDL1 inhibition rate (%)” value was 51%.

For `COc1cc(C(=O)Nc2cccc(-c3cccc(NC(=O)c4nc5c(n4C)CCN(C)C5)c3Cl)c2C)ncc1CNC1(C(=O)O)COC1` [Embodiment 102, 3-(((6-((2′-Chloro-3′-(1,5-dimethyl-4,5,6,7-tetrahydro-1H-imidazo[4,5-c]pyridine-2-carboxamido)-2-methyl-[1,1′-biphenyl]-3-yl)carbamoyl)-4-methoxypyridin-3-yl)methyl)amino)oxetane-3-carboxylic Acid], in assay [1], the IC50 stood at 1 nM. The shift in melting temperature (ΔTm) at 10 µM in assay [6] worked out at 10.8 °C. Also, in assay [3], the “Jurkat-PD1 inhibition rate (%)” value is recorded as −12.0% ^ and the IC50 was above 10000 nM. In addition, in assay [4], the “MC38-hPDL1 inhibition rate (%)” value is reported as −6.7%^ and the IC50 is above 10000 nM.

Consider `COc1cc(C(=O)Nc2cccc(-c3cccc(NC(=O)c4nc5c(n4C)CCN(C)C5)c3Cl)c2C)ncc1CN[C@@H]1CCOC[C@@H]1F` [Embodiment 30, N-(2-Chloro-3′-(5-((((3R,4R)-3-fluorotetrahydro-2H-pyran-4-yl)amino)methyl)-4-methoxypicolinamido)-2′-methyl-[1,1′-biphenyl]-3-yl)-1,5-dimethyl-4,5,6,7-tetrahydro-1H-imidazo[4,5-c]pyridine-2-carboxamide], for which the IC50 in assay [1] was 5.7 nM; in assay [5], 3.7 nM; in assay [3], 2950 nM; in assay [4], above 10000 nM. The Emax in assay [5] was 94%. Besides, the shift in melting temperature (ΔTm) at 10 µM in assay [6] is 11.2 °C. The “Jurkat-PD1 inhibition rate (%)” value in assay [3] turned out to be 99.0%^. The “MC38-hPDL1 inhibition rate (%)” value in assay [4] was 4.0%.

Take `COc1nc(-c2cccc(-c3cccc(NC(=O)c4nc5c(n4C)CCN(C)C5)c3Cl)c2Cl)cnc1CN1CC(F)C1` [Embodiment 217, N-(2,2′-Dichloro-3′-(5-((3-fluoroazetidin-1-yl)methyl)-6-methoxypyrazin-2-yl)-[1,1′-biphenyl]-3-yl)-1,5-dimethyl-4,5,6,7-tetrahydro-1H-imidazo[4,5-c]pyridine-2-carboxamide]: in assay [5], the Emax turned out to be 96% and the IC50 is 1.4 nM. The ΔTm at 10 µM in assay [6] was 13 °C. Further, in assay [3], the “Jurkat-PD1 inhibition rate (%)” value was found to be 79% and the IC50 turned out to be 5370 nM. In assay [4], the “MC38-hPDL1 inhibition rate (%)” value was determined as 67% and the IC50 stood at 7150 nM.

With `COc1cc(C(=O)Nc2cccc(-c3cccc(NC(=O)c4nc5c(n4C)CCN(C)C5)c3Cl)c2C)ncc1CNc1ccnc(C)n1` [Embodiment 90, N-(2-Chloro-3′-(4-methoxy-5-(((2-methylpyrimidin-4-yl)amino)methyl)picolinamido)-2′-methyl-[1,1′-biphenyl]-3-yl)-1,5-dimethyl-4,5,6,7-tetrahydro-1H-imidazo[4,5-c]pyridine-2-carboxamide], in assay [5], the Emax is 80% and the IC50 worked out at 9.9 nM. In assay [2], the half-maximal effective concentration (EC50) amounted to 99 nM and the maximal fold induction was 3.2. Besides, the shift in melting temperature (ΔTm) at 10 µM in assay [6] is 11 °C. Besides, in assay [3], the “Jurkat-PD1 inhibition rate (%)” value was determined as 99.0%^ and the IC50 was found to be 1400 nM. In addition, in assay [4], the “MC38-hPDL1 inhibition rate (%)” value stood at 6.8% and the IC50 is above 10000 nM.

For `COc1nc(-c2cccc(-c3cccc(NC(=O)c4nc5c(n4C)CCN(C)C5)c3Cl)c2Cl)ncc1CN1CC(NC(C)=O)C1` [Embodiment 224, N-(3′-(5-((3-Acetylaminoazetidin-1-yl)methyl)-4-methoxypyrimidin-2-yl)-2,2′-dichloro-[1,1′-biphenyl]-3-yl)-1,5-dimethyl-4,5,6,7-tetrahydro-1H-imidazo[4,5-c]pyridine-2-carboxamide], in assay [1], the IC50 was 4 nM. Further, the Emax in assay [5] came to 90%. Further, the shift in melting temperature (ΔTm) at 10 µM in assay [6] was determined as 11.3 °C. Moreover, in assay [3], the “Jurkat-PD1 inhibition rate (%)” value is 48% and the IC50 worked out at 9500 nM. In addition, in assay [4], the “MC38-hPDL1 inhibition rate (%)” value was determined as 1% and the IC50 is above 10000 nM.

The record behind these values is patent US20230105212A1, “BIPHENYL DERIVATIVE INHIBITOR, PREPARATION METHOD THEREFOR AND USE THEREOF” (SHANGHAI HANSOH BIOMEDICAL CO., LTD., priority 2020, published 2023).
